Legend:
[1] = test system: Streptococcus mutans biofilm; assay: Streptococcus mutans biofilm formation, 0.1% crystal violet staining; assay type: cell-based; conditions: 37° C., 24 hours; for S. mutans biofilm formation (crystal violet), single or co-treatment: 10 μg/ml HBD3-C15, 25 μg/ml CH, 0.02% CHX, or combination, FIG. 2A
Procedure: To confirm the effect of HBD3-C15 on a Streptococcus mutans biofilm, Streptococcus mutans was cultured in a Brain Heart Infusion (BHI) medium. The cultured Streptococcus mutans was prepared at 1×10^7 CFU/ml, and then 1% NaCl or 0.05% sucrose was added thereto to promote biofilm formation, followed by treatment with 50 μg/ml of HBD3-C15. After incubation at 37° C. for 24 hours, 0.1% crystal violet staining was performed for comparison of the degree of biofilm formation.
In addition, 0.05% sucrose was added to Streptococcus mutans, followed with treatment with HBD3-C15 at a concentration of 10 μg/ml, 30 μg/ml, or 50 μg/ml. After incubation at 37° C. for 24 hours, 0.1% crystal violet staining was performed for comparison of the degree of biofilm formation.
To determine whether HBD3-C15 is capable of inhibiting a biofilm by synergistic effects with calcium hydroxide (CH) or chlorohexidine (CHX), which is an existing dental therapeutic agent, Streptococcus mutans was cultured in a BHI medium and then prepared at 1×10^7 CFU/ml, and treated with 10 μg/ml of HBD3-C15, 25 μg/ml of CH, 0.02% CHX, or a combination thereof in the presence of 0.05% sucrose. After incubation at 37° C. for 24 hours, 0.1% crystal violet staining was performed for comparison of the degree of biofilm formation.

[2] = test system: Streptococcus mutans biofilm; assay: Streptococcus mutans biofilm formation on human teeth dentin sections, scanning electron microscope; assay type: cell-based; conditions: 10 μg/ml HBD3-C15, 25 μg/ml CH, 0.02% CHX, or combination; 0.05% sucrose; 37° C., 24 hours; FIG. 2B
Procedure: In addition, human teeth dentin sections were prepared to represent an actual oral infection situation, 1×10^7 CFU/ml of Streptococcus mutans was treated, on the dentin sections, with 10 μg/ml of HBD3-C15, 25 μg/ml of CH, 0.02% CHX, or a combination thereof in the presence of 0.05% sucrose. After incubation at 37° C. for 24 hours, comparison of the degree of biofilm formation was conducted using a scanning electron microscope.

[3] = test system: Enterococcus faecalis biofilm; assay: Enterococcus faecalis biofilm formation on dentin sections, scanning electron microscope; assay type: cell-based; conditions: 5×10^6 CFU/ml; 10 μg/ml HBD3-C15, 25 μg/ml CH, 0.02% CHX, or combination; 37° C., 24 hours; FIG. 3
Procedure: (§1) To confirm whether the Streptococcus mutans biofilm inhibition through synergistic effects of HBD3-C15 and an existing dental therapeutic agent is reproduced in the formation of biofilms formed by other dental infectious bacteria, Enterococcus faecalis and Streptococcus gordonii were cultured in a BHI medium and a Todd Hewitt yeast (THY) medium, respectively, and then E. faecalis and S. gordonii were prepared at 5×10^6 CFU/ml and 1×10^8 CFU/ml, respectively, and treated, on the dentin sections, with 10 μg/ml of HBD3-C15, 25 μg/ml of CH, 0.02% CHX, or a combination thereof. After incubation at 37° C. for 24 hours, comparison of the degree of biofilm formation was conducted using a scanning electron microscope.

[4] = test system: Streptococcus mutans biofilm; assay: Streptococcus mutans biofilm formation, confocal microscope; assay type: cell-based; conditions: HBD3-C15 at 10, 30 or 50 μg/ml; 0.05% sucrose; FIG. 1C
[5] = test system: Streptococcus gordonii biofilm; assay: Streptococcus gordonii biofilm formation on dentin sections, scanning electron microscope; assay type: cell-based; conditions: 1×10^8 CFU/ml; 10 μg/ml HBD3-C15, 25 μg/ml CH, 0.02% CHX, or combination; 37° C., 24 hours; FIG. 3
Procedure: as §1

[6] = Tooth discoloration of treated dentin sections, photographed; parameters: species or system human; conditions: 30 μg/ml HBD3-C15, 0.002% CHX, 0.02% CHX, or combination (2% CHX positive control), 37° C., 7 days, FIG. 5
Procedure: According to previous papers, it has been reported that CHX, which is a typical dental therapeutic agent, causes side effects such as tooth discoloration. Thus, to confirm the effect of treatment with HBD3-C15 alone or a combination of HBD3-C15 and CHX on tooth discoloration, dentin sections were treated with 30 μg/ml of HBD3-C15, 0.002% CHX, 0.02% CHX, or a combination thereof, and 2% CHX was used as a positive control. Subsequently, the dentin sections were cultured at 37° C. for 7 days and photographed to observe the degree of tooth discoloration.

Row | Compound | S. mutans biofilm formation (crystal violet), single or co-treatment ([1]; 0.05% sucrose) | formation of Streptococcus mutans biofilm (crystal violet) ([1]; 50 μg/ml HBD3-C15, biofilm promoted by 0.05% sucrose, FIG. 1A) | formation of Streptococcus mutans biofilm (crystal violet) ([1]; 50 μg/ml HBD3-C15, biofilm promoted by 1% NaCl, FIG. 1A) | formation of Streptococcus mutans biofilm (crystal violet) ([1]; HBD3-C15 at 10, 30 or 50 μg/ml, 0.05% sucrose, FIG. 1B) | S. mutans biofilm formation on dentin sections (SEM), single or co-treatment [2] | E. faecalis biofilm formation on dentin sections (SEM), single or co-treatment [3] | formation of Streptococcus mutans biofilm (confocal microscope) [4] | S. gordonii biofilm formation on dentin sections (SEM), single or co-treatment [5] | tooth discoloration [6]
1 | G-K-C-S-T-R-G-R-K-C-C-R-R-K-K [HBD3-C15] | inhibited | inhibited | inhibited | inhibited in a concentration-dependent manner | inhibited | inhibited | inhibit formation of a biofilm in a concentration-dependent manner | inhibited | 
2 | N=C(NCCCCCCNC(=N)NC(=N)Nc1ccc(Cl)cc1)NC(=N)Nc1ccc(Cl)cc1 [CHX, chlorohexidine] | inhibited |  |  |  | inhibited | inhibited |  | inhibited | induced by treatment with CHX alone in a concentration-dependent manner
3 | [Ca+2].[OH-].[OH-] [CH, calcium hydroxide] | inhibited |  |  |  | inhibited | inhibited |  | inhibited | 
